In US7989585B2, “Chronic treatment regimen using glucagon-like insulinotropic peptides” (Eli Lilly and Company, priority 2000, dated 2011):
No end group written: not given here.

How the values were obtained:
human GLP-1 receptor = biological target: T1, human GLP-1 receptor (Homo sapiens, UniProt P43220); assay: In vitro potency assay (CRE-BLAM fluorescence assay); format: cell-based; settings: for In vitro activity relative to Val^8-GLP-1(7-37)OH: from EC50, HEK-293 Aurora CRE-BLAM cells, Val^8-GLP-1(7-37)OH control = 1; for potency higher than Val^8-GLP-1(7-37)OH: in vitro potency, approximate
T1 construct: expressed in transfected cells; host or cells: HEK-293 Aurora CRE-BLAM cells
From the text: The assay is discussed in more detail on page 17 and in example 3.
These HEK-293 cells have stably integrated a DNA vector having a cAMP response element (CRE) driving expression of the β-lactamase (BLAM) gene. […] The assay is further described in Zlokarnik, et al. (1998) Science 279:84-88 (See also Example 3).
The day after seeding, the medium is replaced with plasma free medium.

[1] = cited from earlier work

T1 sequence (P43220 24-463): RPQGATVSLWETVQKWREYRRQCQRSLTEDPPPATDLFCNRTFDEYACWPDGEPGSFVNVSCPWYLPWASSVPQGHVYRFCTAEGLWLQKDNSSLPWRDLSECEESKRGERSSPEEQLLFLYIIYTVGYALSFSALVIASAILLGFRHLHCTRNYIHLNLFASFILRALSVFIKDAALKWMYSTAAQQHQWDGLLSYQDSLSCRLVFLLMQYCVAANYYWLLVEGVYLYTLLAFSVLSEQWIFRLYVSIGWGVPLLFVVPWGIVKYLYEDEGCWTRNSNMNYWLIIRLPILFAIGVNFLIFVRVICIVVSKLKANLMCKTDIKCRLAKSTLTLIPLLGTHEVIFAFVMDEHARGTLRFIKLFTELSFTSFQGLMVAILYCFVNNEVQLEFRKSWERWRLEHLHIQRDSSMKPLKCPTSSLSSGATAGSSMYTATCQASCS

Substance | In vitro activity relative to Val^8-GLP-1(7-37)OH (human GLP-1 receptor) | also measured
Exendin-4 [reference compound] | 4.5 | potency higher than Val^8-GLP-1(7-37)OH (human GLP-1 receptor): approximately 5 fold
GLP-1(7-37)OH |  | intact GLP-1 levels ([1]; 2.4 pmol/kg/min (Toft-Nielsen et al.)): ~22.5 picomolar; plasma levels of intact GLP-1 ([1]; continuous administration 0.75 pmol/kg/min for 180 min, last 120 min of treatment (Naslund et al.)): approximately 20 picomolar
Gly^8-GLP-1(7-37)OH (HGEGTFTSDVSSYLEGQAAKEFIAWLVKGRG-OH; UniProt P01275 98-128, looked up, variant A8G) [GLP-1 analog] | 1.67 | 
Val^8-GLP-1(7-36)NH2 | 1.06 | 
Val^8-Leu^16-GLP-1(7-37)OH | 1.13 | 
Val^8-Tyr^12-GLP-1(7-37)OH | 1.73 | 

Second part, led by results:

In vitro activity relative to Val^8-GLP-1(7-37)OH (human GLP-1 receptor) | Substance | also measured
1.92 | Arg^34Lys^26-(N-ε-(γ-Glu(N-α-hexadecanoyl)))-GLP-1(7-37) [reference compound] | 
1.47 | Val^8-Arg^26-GLP-1(7-37)OH | 
3.33 | Val^8-Glu^22-GLP-1(7-37)OH | potency higher than Val^8-GLP-1(7-37)OH (human GLP-1 receptor): approximately 3 fold
1.22 | Val^8-Lys^22-GLP-1(7-37)OH | 
1.07 | Val^8-Trp^12-GLP-1(7-37)OH | 
